Source: publication PMC10720709, “Design, synthesis, and evaluation of 4-(3-(3,5-dimethylisoxazol-4-yl)benzyl)phthalazin-1(2H)-one derivatives: potent BRD4 inhibitors with anti-breast cancer activity” (Frontiers in Pharmacology, 2023)
Read-outs that look alike come from different tables or passages of the source.

Tests used:
MDA-MB-231 cells = assay: MTT cell viability assay, MDA-MB-231; format: cell-based; settings: Homo sapiens, read-out: Cytotoxicity IC50
Protocol: (§1) MDA-MB-468, MDA-MB-231, and MCF-7 cell lines were sourced from the National Collection of Authenticated Cell Culture, China. Cells were maintained in DMEM medium supplemented with 10% FBS and 1% penicillin/streptomycin, and incubated at 37°C in a humidified atmosphere containing 5% CO2.
(§2) The viability of cells was assessed using the MTT assay. Cells were seeded at a density of 3×10^3 cells per well in a 96-well plate and treated with varying concentrations (0.05, 0.2, 0.8, 3.2, 6.4, 12.8 µM) of the compounds for 72 h. Post-incubation, 100 µL of MTT solution (0.5 mg/mL) was added to each well and further incubated for 4 h. The resulting formazan crystals were dissolved in 150 µL DMSO, and the absorbance was measured at 570 nm using a microplate reader.

[1] = target: T1, recombinant BRD4 (BD1 + BD2) (Homo sapiens, UniProt O60885); assay: BRD4 TR-FRET activity assay; format: binding; settings: for inhibition at 1 µM: 1 μmol/L, read-out: BRD4 inhibition rate; for IC50: TR-FRET, BRD4 (BD1 + BD2);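 as to all read-outs here: signal rises with BET ligand binding to the bromodomains, so inhibitors lower it, 120 min incubation at room temperature, 1% DMSO, wells lacking ligand as negative control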
T1 construct: employing a recombinant BRD4 (BD1 + BD2) and its corresponding ligand
Protocol: The BRD4 activity assay utilized TR-FRET technology, employing a recombinant BRD4 (BD1 + BD2) and its corresponding ligand. The TR-FRET signal generated in the assay is proportional to the ligand’s binding to the bromodomains. All reactions contained a final DMSO concentration of 1%. All binding reactions were conducted at room temperature. Each 20 µL reaction mixture, in assay buffer, comprised bromodomains, the BET Ligand, and the specified inhibitor amount. For the negative control, 5 µL of assay buffer replaced the BET ligand. After a 120-min incubation with the ligand, the TR-FRET signal was captured using a Tecan Infinite M1000 plate reader. IC50 values were determined through nonlinear regression with a normalized dose-response fit in Prism GraphPad software.

PARP1 = PARP1 (Homo sapiens, UniProt P09874); assay: PARP1 enzymatic activity ELISA; format: biochemical; settings: 0.5 μmol/L; read-out: PARP1 inhibition rate
Sequence of PARP1 (P09874 whole entry): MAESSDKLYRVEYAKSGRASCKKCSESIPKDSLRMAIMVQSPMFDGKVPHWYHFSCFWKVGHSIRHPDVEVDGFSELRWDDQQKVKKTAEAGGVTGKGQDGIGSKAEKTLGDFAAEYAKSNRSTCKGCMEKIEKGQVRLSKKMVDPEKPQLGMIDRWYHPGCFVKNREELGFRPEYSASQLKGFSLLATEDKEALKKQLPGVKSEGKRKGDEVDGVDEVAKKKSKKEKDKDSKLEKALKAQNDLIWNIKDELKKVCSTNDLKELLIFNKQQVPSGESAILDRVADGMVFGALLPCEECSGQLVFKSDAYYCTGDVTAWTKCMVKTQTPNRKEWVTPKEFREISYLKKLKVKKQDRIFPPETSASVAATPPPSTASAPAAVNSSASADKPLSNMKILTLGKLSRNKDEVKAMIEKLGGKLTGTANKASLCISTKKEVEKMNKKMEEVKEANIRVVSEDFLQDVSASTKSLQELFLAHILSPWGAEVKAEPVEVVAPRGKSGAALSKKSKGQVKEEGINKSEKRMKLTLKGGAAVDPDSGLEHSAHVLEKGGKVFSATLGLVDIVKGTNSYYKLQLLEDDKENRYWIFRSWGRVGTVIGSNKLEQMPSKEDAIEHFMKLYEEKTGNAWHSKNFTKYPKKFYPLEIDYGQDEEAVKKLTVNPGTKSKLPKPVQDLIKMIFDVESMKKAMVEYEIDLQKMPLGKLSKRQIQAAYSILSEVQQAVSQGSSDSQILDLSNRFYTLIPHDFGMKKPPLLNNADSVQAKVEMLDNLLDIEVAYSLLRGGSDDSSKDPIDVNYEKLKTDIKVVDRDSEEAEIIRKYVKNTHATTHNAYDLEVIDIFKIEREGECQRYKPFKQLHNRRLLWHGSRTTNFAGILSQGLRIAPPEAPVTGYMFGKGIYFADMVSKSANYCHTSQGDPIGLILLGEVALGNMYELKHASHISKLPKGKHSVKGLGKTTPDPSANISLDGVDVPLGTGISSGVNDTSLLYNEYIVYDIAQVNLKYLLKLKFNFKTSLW
Protocol: The inhibition of PARP1 enzymatic activity by the tested compounds was gauged using an ELISA in 96-well plates. Each well was pre-coated with histone (20 μg/mL) in 100 μL of PBS buffer and incubated overnight at 4 °C. […] This was followed by the addition of 5 μL of either the compound at varying concentrations or a solvent control. The reaction was initiated by adding 20 μL of PARP (50 ng/well) and incubating at 30°C for 1 h. Post-reaction, 50 µL of streptavidin-conjugated HRP was introduced, and the assay continued at 30°C for an additional 30 min. Finally, 100 μL of a solution containing H2O2 and luminol in 0.1 M citrate buffer (pH 5.4) was added, and the luminescent signal was recorded using a Molecular Devices SpectraMax M5 microplate reader.

MDA-MB-468 cells = assay: MTT cell viability assay, MDA-MB-468; format: cell-based; settings: Homo sapiens, read-out: Cytotoxicity IC50
Protocol: as §1, §2

MCF-7 cells [2] = assay: MTT cell viability assay, MCF-7; format: cell-based; settings: Homo sapiens, read-out: Cytotoxicity IC50
Protocol: as §1, §2

MCF-7 cells [3] = assay: Wound scratch cell migration assay; format: cell-based; settings: MCF-7, wound scratch, 1 μM, 48 h
Protocol: MCF-7 cells were seeded in 6-well plates at a density of 5×10^5 cells/well and incubated overnight. A scratch was made in the cell monolayer using a 10 µL pipette tip. […] Images were captured at 0, 12, 24, and 48-h intervals.

MCF-7 cells [4] = assay: Cell cycle analysis (PI, flow cytometry); format: cell-based; settings: MCF-7, 48 h
Protocol: The cell cycle distribution was assessed using the DNA Content Quantitation Assay Kit (Solarbio, China). […] After treatment, cells were harvested, fixed in ice-cold 70% ethanol overnight at 4°C, and subsequently washed with PBS. Cells were then treated with 100 μL RNase at 37°C for 30 min and stained with 400 μL PI for 30 min at 4°C in the dark. The cell cycle distribution was analyzed using an Accuri C6 Plus flow cytometer (BD Bioscience, CA), and data interpretation was performed with FlowJo software.

| SMILES | inhibition at 1 µM [1] | melting point | further results |
| --- | --- | --- | --- |
| Cc1noc(C)c1-c1cc(Cc2n[nH]c(=O)c3ccccc23)cc(C(=O)N2CC[C@H](O)C2)c1 [DDT14] | 74% | 204 to 205 °C | IC50 (MDA-MB-231 cells; MDA-MB-231, MTT, 72 h): 8.29 µM; IC50 [1]: 1.1 ± 0.45 µM; inhibition at 0.5 µM (PARP1): 53%; IC50 (MDA-MB-468 cells; MDA-MB-468, MTT, 72 h): 14.4 µM; IC50 (MCF-7 cells [2]; MCF7, MCF-7, MTT, 72 h): > 20 µM |
| Cc1ccccc1C(=O)Nc1cc(Cc2n[nH]c(=O)c3ccccc23)cc(-c2c(C)noc2C)c1 [DDT23] | 97% |  | IC50 (MDA-MB-231 cells; MDA-MB-231, MTT, 72 h): 8.83 µM; IC50 (MDA-MB-468 cells; MDA-MB-468, MTT, 72 h): 10.6 µM; IC50 (MCF-7 cells [2]; MCF7, MCF-7, MTT, 72 h): 18.7 µM |
| Cc1cccc(C(=O)Nc2cc(Cc3n[nH]c(=O)c4ccccc34)cc(-c3c(C)noc3C)c2)c1 [DDT24] | 91% | > 250 °C | IC50 (MDA-MB-231 cells; MDA-MB-231, MTT, 72 h): 8.23 µM; IC50 [1]: 1.88 ± 0.6 µM; IC50 (MDA-MB-468 cells; MDA-MB-468, MTT, 72 h): 9.09 µM; IC50 (MCF-7 cells [2]; MCF7, MCF-7, MTT, 72 h): 12.8 µM |
| Cc1ccc(C(=O)Nc2cc(Cc3n[nH]c(=O)c4ccccc34)cc(-c3c(C)noc3C)c2)cc1 [DDT25] | 76% |  | IC50 (MDA-MB-231 cells; MDA-MB-231, MTT, 72 h): 11.6 µM; IC50 (MDA-MB-468 cells; MDA-MB-468, MTT, 72 h): 6.5 µM; IC50 (MCF-7 cells [2]; MCF7, MCF-7, MTT, 72 h): 12.5 µM |
| CC(=O)Nc1cccc(CNc2cc(Cc3n[nH]c(=O)c4ccccc34)cc(-c3c(C)noc3C)c2)c1 [DDT47] | 78% |  | IC50 (MDA-MB-231 cells; MDA-MB-231, MTT, 72 h): 17.1 µM; IC50 (MDA-MB-468 cells; MDA-MB-468, MTT, 72 h): 9.39 µM; IC50 (MCF-7 cells [2]; MCF7, MCF-7, MTT, 72 h): 11.7 µM |
| CC(=O)Nc1ccc(CNc2cc(Cc3n[nH]c(=O)c4ccccc34)cc(-c3c(C)noc3C)c2)cc1 [DDT48] | 96% |  | IC50 (MDA-MB-231 cells; MDA-MB-231, MTT, 72 h): 8.77 µM; IC50 [1]: 0.46 ± 0.17 µM; IC50 (MDA-MB-468 cells; MDA-MB-468, MTT, 72 h): 9.09 µM; IC50 (MCF-7 cells [2]; MCF7, MCF-7, MTT, 72 h): > 20 µM |
| Cc1noc(C)c1-c1cc(Cc2n[nH]c(=O)c3ccccc23)cc(NCc2cccc(N)c2)c1 [DDT49] | 72% |  | IC50 [1]: 0.585 ± 0.225 µM; inhibition at 0.5 µM (PARP1): 50% |
| Cc1ccc(S(=O)(=O)Nc2cc(Cc3n[nH]c(=O)c4ccccc34)cc(-c3c(C)noc3C)c2)cc1 [DDT59] | 75% |  | IC50 (MDA-MB-231 cells; MDA-MB-231, MTT, 72 h): 7.44 µM; IC50 [1]: 0.909 ± 0.396 µM; inhibition at 0.5 µM (PARP1): 8%; IC50 (MDA-MB-468 cells; MDA-MB-468, MTT, 72 h): 11 µM; IC50 (MCF-7 cells [2]; MCF7, MCF-7, MTT, 72 h): > 20 µM |
| Cc1cc(C)cc(S(=O)(=O)Nc2cc(Cc3n[nH]c(=O)c4ccccc34)cc(-c3c(C)noc3C)c2)c1 [DDT60] | 28% | 155 to 156 °C |  |
| CCc1ccc(S(=O)(=O)Nc2cc(Cc3n[nH]c(=O)c4ccccc34)cc(-c3c(C)noc3C)c2)cc1 [DDT62] | 67% | 202 to 203 °C |  |
| CCCc1ccc(S(=O)(=O)Nc2cc(Cc3n[nH]c(=O)c4ccccc34)cc(-c3c(C)noc3C)c2)cc1 [DDT63] | 51% | 148 to 149 °C |  |
| Cc1noc(C)c1-c1cc(Cc2n[nH]c(=O)c3ccccc23)cc(NS(=O)(=O)c2ccc(C(C)(C)C)cc2)c1 [DDT65] | 44% | 154 to 155 °C |  |
| COc1cccc(S(=O)(=O)Nc2cc(Cc3n[nH]c(=O)c4ccccc34)cc(-c3c(C)noc3C)c2)c1 [DDT68] | 59% | 184 to 185 °C |  |
| COc1ccc(S(=O)(=O)Nc2cc(Cc3n[nH]c(=O)c4ccccc34)cc(-c3c(C)noc3C)c2)cc1 [DDT69] | 70% | 155 to 156 °C |  |
| COc1ccc(S(=O)(=O)Nc2cc(Cc3n[nH]c(=O)c4ccccc34)cc(-c3c(C)noc3C)c2)cc1OC [DDT70] | 32% | 165 to 166 °C |  |
| CC(=O)Nc1cccc(S(=O)(=O)Nc2cc(Cc3n[nH]c(=O)c4ccccc34)cc(-c3c(C)noc3C)c2)c1 [DDT72] | 4% | 192 to 193 °C |  |

| SMILES | inhibition at 1 µM [1] | melting point | further results |
| --- | --- | --- | --- |
| Cc1noc(C)c1-c1cc(Cc2n[nH]c(=O)c3ccccc23)cc(NS(=O)(=O)c2ccc(OCc3ccccc3)cc2)c1 [DDT74] | 34% | 148 to 149 °C |  |
| Cc1noc(C)c1-c1cc(Cc2n[nH]c(=O)c3ccccc23)cc(NS(=O)(=O)c2ccc3c(c2)CCO3)c1 [DDT75] | 42% | 162 to 163 °C |  |
| Cc1cccc(CS(=O)(=O)Nc2cc(Cc3n[nH]c(=O)c4ccccc34)cc(-c3c(C)noc3C)c2)c1 [DDT77] | 38% | 154 to 155 °C |  |
| Cc1noc(C)c1-c1cc(Cc2n[nH]c(=O)c3ccccc23)cc(NS(=O)(=O)c2ccc(O)cc2)c1 [DDT79] | 7% | 238 to 239 °C |  |
| Cc1noc(C)c1-c1cc(Cc2n[nH]c(=O)c3ccccc23)cc(NS(=O)(=O)c2ccccc2C(F)(F)F)c1 [DDT80] | 15% | 197 to 198 °C |  |
| Cc1noc(C)c1-c1cc(Cc2n[nH]c(=O)c3ccccc23)cc(NS(=O)(=O)c2ccc(C(F)(F)F)cc2)c1 [DDT82] | 24% | 193 to 194 °C |  |
| Cc1noc(C)c1-c1cc(Cc2n[nH]c(=O)c3ccccc23)cc(NS(=O)(=O)c2ccc(F)cc2)c1 [DDT86] | 7% | 151 to 152 °C |  |
| Cc1noc(C)c1-c1cc(Cc2n[nH]c(=O)c3ccccc23)cc(NS(=O)(=O)c2ccccc2Cl)c1 [DDT87] | 72% | 174 to 175 °C |  |
| Cc1noc(C)c1-c1cc(Cc2n[nH]c(=O)c3ccccc23)cc(NS(=O)(=O)c2cccc(Cl)c2)c1 [DDT88] | 17% | 142 to 143 °C |  |
| Cc1noc(C)c1-c1cc(Cc2n[nH]c(=O)c3ccccc23)cc(NS(=O)(=O)c2ccc(Cl)cc2)c1 [DDT89] | 72% | 147 to 148 °C |  |
| Cc1noc(C)c1-c1cc(Cc2n[nH]c(=O)c3ccccc23)cc(NS(=O)(=O)c2ccccc2Br)c1 [DDT91] | 8% | 171 to 172 °C |  |
| Cc1noc(C)c1-c1cc(Cc2n[nH]c(=O)c3ccccc23)cc(NS(=O)(=O)c2cccc(Br)c2)c1 [DDT92] | 4% | 147 to 148 °C |  |
| Cc1noc(C)c1-c1cc(Cc2n[nH]c(=O)c3ccccc23)cc(NS(=O)(=O)c2cccc(S(C)(=O)=O)c2)c1 [DDT94] | 5% | 243 to 244 °C |  |
| Cc1sc2c(c1C)C(c1ccc(Cl)cc1)=N[C@@H](CC(=O)OC(C)(C)C)c1nnc(C)n1-2 [JQ1, reference compound] |  |  | IC50 (MDA-MB-231 cells; MDA-MB-231, 72 h): 4.83 µM; IC50 (MDA-MB-468 cells; MDA-MB-468, 72 h): 3.24 µM; inhibition of cell migration (in words) (MCF-7 cells [3]): most potent inhibitory effect; IC50 (MCF-7 cells [2]; MCF7, 72 h): 18.4 µM |
| O=C(c1cc(Cc2n[nH]c(=O)c3ccccc23)ccc1F)N1CCN(C(=O)C2CC2)CC1 [Olaparib, reference compound] |  |  | IC50 (MDA-MB-231 cells; MDA-MB-231, MTT, 72 h): 8.17 µM; IC50 (MDA-MB-468 cells; MDA-MB-468, MTT, 72 h): 8.09 µM; inhibition of cell migration (in words) (MCF-7 cells [3]): no inhibitory activity; effect on cell cycle (in words) (MCF-7 cells [4]): did not influence the MCF-7 cell cycle; IC50 (MCF-7 cells [2]; MCF7, MCF-7, MTT, 72 h): 8.7 µM |
